Results on eleven compounds are retold here after ChEMBL document CHEMBL4371065, “Design and synthesis of biaryloxazolidinone derivatives containing a rhodanine or thiohydantoin moiety as novel antibacterial agents against Gram-positive bacteria” (Bioorg Med Chem Lett, 2019).

≈ marks a conversion by molar mass, not a printed value.

Series [1] deals with Enterococcus faecium. Description: Antibacterial activity against vancomycin-resistant Enterococcus faecium by broth liquid microdilution method. Format: functional. For orientation: Broth dilution looks for growth in wells or tubes with falling amounts of substance.
Series [2] relates to Enterococcus faecalis. Description: Antibacterial activity against linezolid-resistant Enterococcus faecalis by broth liquid microdilution method. Format: functional.
The subject of series [3] is Staphylococcus aureus. Description: Antibacterial activity against methicillin-sensitive Staphylococcus aureus by broth liquid microdilution method. The format is functional.
Series [4] relates to Staphylococcus aureus. Description: Antibacterial activity against methicillin-resistant Staphylococcus aureus by broth liquid microdilution method. Format: functional.
Series [5] relates to Staphylococcus aureus. Description: Antibacterial activity against Staphylococcus aureus ATCC 29213 by broth liquid microdilution method. Format: functional.
The test system of a further series is HepG2. Description: Cytotoxicity against human HepG2 cells after 48 hrs by MTT assay. The format is cell-based. Conditions: HepG2, 48 h.
A further series deals with T1, MAO-A (Homo sapiens, UniProt P21397).
T1 sequence (P21397 whole entry): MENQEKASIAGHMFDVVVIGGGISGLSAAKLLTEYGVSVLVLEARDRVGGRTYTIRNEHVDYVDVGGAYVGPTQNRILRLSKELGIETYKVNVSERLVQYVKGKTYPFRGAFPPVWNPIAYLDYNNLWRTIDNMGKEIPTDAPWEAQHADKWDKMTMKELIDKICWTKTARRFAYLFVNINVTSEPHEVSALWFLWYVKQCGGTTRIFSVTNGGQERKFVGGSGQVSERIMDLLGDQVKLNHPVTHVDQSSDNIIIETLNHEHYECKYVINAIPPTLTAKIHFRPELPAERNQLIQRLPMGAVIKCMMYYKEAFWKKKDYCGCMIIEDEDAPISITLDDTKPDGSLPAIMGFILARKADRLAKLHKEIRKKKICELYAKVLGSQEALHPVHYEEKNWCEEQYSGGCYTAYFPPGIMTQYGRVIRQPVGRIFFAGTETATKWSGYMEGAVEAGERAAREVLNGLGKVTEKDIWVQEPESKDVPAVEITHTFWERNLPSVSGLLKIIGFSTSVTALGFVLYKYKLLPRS
Description: Inhibition of recombinant human full length N-terminal FLAG-tagged MAO-A expressed in sf9 cells at 30 uM preincubated for 15 mins followed by substrate addition and measured after 60 mins by luminescence assay relative to control.

Series [6] deals with Staphylococcus aureus. The series can be described thus: Antibacterial activity against clinical isolates of methicillin-sensitive Staphylococcus aureus by broth liquid microdilution method. Format: functional.
For series [7], the system named is Enterococcus faecium. Description: Antibacterial activity against clinical isolates of vancomycin-resistant Enterococcus faecium by broth liquid microdilution method. The format is functional.
For series [8], the system named is Enterococcus faecalis. The series can be described thus: Antibacterial activity against clinical isolates of linezolid-resistant Enterococcus faecalis by broth liquid microdilution method. Format: functional.

Regarding `CCN(CC)CCCN1C(=O)/C(=C/c2ccc(-c3ccc(N4C[C@H](CNC(C)=O)OC4=O)cc3F)cc2)SC1=S`, the MIC against Enterococcus faecium [1], in the series on Enterococcus faecalis [2], in the series on Staphylococcus aureus [3], against Staphylococcus aureus [4] and against Staphylococcus aureus [5] was 0.5 µg/mL (≈ 0.855 µM) each time.
Consider `CCN1C(=O)/C(=C/c2ccc(-c3ccc(N4C[C@H](CNC(C)=O)OC4=O)cc3F)cc2)SC1=S`, for which the minimal inhibitory concentration (MIC) (in general, the least concentration at which growth counts as inhibited) in the series with Enterococcus faecium [1] is 0.5 µg/mL (≈ 1 µM); in the series with Enterococcus faecalis [2], 0.5 µg/mL (≈ 1 µM); in the series on Staphylococcus aureus [3], 0.25 µg/mL (≈ 0.5 µM); against Staphylococcus aureus [4], 0.25 µg/mL (≈ 0.5 µM); against Staphylococcus aureus [5], 0.25 µg/mL (≈ 0.5 µM).
Regarding `CCN1C(=O)/C(=C/c2ccc(-c3ccc(N4C[C@H](CNC(C)=O)OC4=O)cc3F)cc2)NC1=S`, the minimum inhibitory concentration (MIC) in the series on Enterococcus faecium [1], in the series with Enterococcus faecalis [2], with Staphylococcus aureus [3], against Staphylococcus aureus [4] and in the series with Staphylococcus aureus [5] was 0.25 µg/mL (≈ 0.518 µM) throughout.
As to `CCCN1C(=O)/C(=C/c2ccc(-c3ccc(N4C[C@H](CNC(C)=O)OC4=O)cc3F)cc2)SC1=S`, the MIC in the series with Enterococcus faecium [1], against Enterococcus faecalis [2], against Staphylococcus aureus [3], against Staphylococcus aureus [4] and in the series with Staphylococcus aureus [5] was 2 µg/mL (≈ 3.89 µM) each time.
Take `CCOC(=O)CN1C(=O)/C(=C/c2ccc(-c3ccc(N4C[C@H](CNC(C)=O)OC4=O)cc3F)cc2)NC1=S`: the MIC against Enterococcus faecium [1], in the series with Enterococcus faecalis [2], against Staphylococcus aureus [3], against Staphylococcus aureus [4] and with Staphylococcus aureus [5] was 1 µg/mL (≈ 1.85 µM) in each case.
Take `CC(=O)NC[C@H]1CN(c2ccc(-c3ccc(/C=C4\NC(=S)N(C(C)C)C4=O)cc3)c(F)c2)C(=O)O1`: the MIC amounted to 0.5 µg/mL (≈ 1.01 µM) with Enterococcus faecium [1]; 0.5 µg/mL (≈ 1.01 µM) in the series with Enterococcus faecalis [2]; 1 µg/mL (≈ 2.01 µM) against Staphylococcus aureus [3]; 1 µg/mL (≈ 2.01 µM) with Staphylococcus aureus [4]; 1 µg/mL (≈ 2.01 µM) against Staphylococcus aureus [5].
With `CC(=O)NC[C@H]1CN(c2ccc(-c3ccc(/C=C4\NC(=S)NC4=O)cc3)c(F)c2)C(=O)O1`, the MIC against Enterococcus faecium [1] was 0.125 µg/mL (≈ 0.275 µM); against Enterococcus faecalis [2] it was 0.125 µg/mL (≈ 0.275 µM); in the series with Staphylococcus aureus [3], 0.125 µg/mL (≈ 0.275 µM); against Staphylococcus aureus [4] it was 0.125 µg/mL (≈ 0.275 µM); against Staphylococcus aureus [6], 0.5 to 1 µg/mL (≈ 1.1 to 2.2 µM); in the series with Enterococcus faecium [7], 0.25 to 0.5 µg/mL (≈ 0.55 to 1.1 µM). Also, the minimum inhibitory concentration (MIC) in the series with Staphylococcus aureus [5] is 0.125 µg/mL (≈ 0.275 µM); against Enterococcus faecalis [8] it was 0.25 to 0.5 µg/mL (≈ 0.55 to 1.1 µM). In the series on HepG2, the IC50 (usually the concentration that inhibits the measured activity by half) was determined as 61.7 µM. The inhibition (usually the change of the read-out against control, counted positive when it falls) at 1 h, 30 µM on MAO-A was 99%.
As to `CC(=O)NC[C@H]1CN(c2ccc(-c3ccc(/C=C4\NC(=S)N(C)C4=O)cc3)c(F)c2)C(=O)O1`, the MIC with Enterococcus faecium [1], against Enterococcus faecalis [2], in the series with Staphylococcus aureus [3], with Staphylococcus aureus [4] and against Staphylococcus aureus [5] was 0.5 µg/mL (≈ 1.07 µM) each time.
For the compound `CCCN1C(=O)/C(=C/c2ccc(-c3ccc(N4C[C@H](CNC(C)=O)OC4=O)cc3F)cc2)NC1=S`, the minimum inhibitory concentration (MIC) against Enterococcus faecium [1], with Enterococcus faecalis [2], in the series with Staphylococcus aureus [3], in the series with Staphylococcus aureus [4] and in the series with Staphylococcus aureus [5] was 2 µg/mL (≈ 4.03 µM) each time.
Turning to `CC(=O)NC[C@H]1CN(c2ccc(N3CCOCC3)c(F)c2)C(=O)O1` [LINEZOLID], the MIC in the series on Enterococcus faecium [1] is 2 µg/mL (≈ 5.93 µM); against Enterococcus faecalis [2] it was over 16 µg/mL; in the series with Staphylococcus aureus [3], 1 µg/mL (≈ 2.96 µM); in the series on Staphylococcus aureus [4], 1 µg/mL (≈ 2.96 µM); against Staphylococcus aureus [6] it was 1 to 4 µg/mL (≈ 2.96 to 11.9 µM); against Enterococcus faecium [7], 1 to 4 µg/mL (≈ 2.96 to 11.9 µM). Further, the minimum inhibitory concentration (MIC) in the series on Staphylococcus aureus [5] was 1 µg/mL (≈ 2.96 µM); against Enterococcus faecalis [8] it was over 16 µg/mL. The 50% inhibitory concentration (IC50) in the series with HepG2 was over 25 µM. The inhibition at 1 h, 30 µM on MAO-A is 76%.
Turning to `CC(=O)NC[C@H]1CN(c2ccc(-c3ccc(CNCc4cnn[nH]4)cc3)c(F)c2)C(=O)O1` [RADEZOLID], the minimal inhibitory concentration (MIC) in the series with Enterococcus faecium [1], in the series with Enterococcus faecalis [2], against Staphylococcus aureus [3], against Staphylococcus aureus [4] and against Staphylococcus aureus [5] was 0.5 µg/mL (≈ 1.14 µM) in each case.
